Test results from patent US4725576A, “Fungicidal polypeptide compositions containing L-histidine and methods for use therefore” (priority 1985, dated 1988).

Key:
[1] = tested on: S. mutans SB; test: Preincubation in acidic buffer, growth and viability of S. mutans SB; type: cell-based, Streptococcus mutans; details: for % Loss of Viability / GFU (colony forming units) / O.D. 675 nm: 500 μg/ml
Experimental: ^a S. mutans SB at 5 × 10^5 colony forming units per ml was
suspended and preincubated in MES buffer, pH 5.2, at an ionic strength of
0.025 for 1 and 2 hours at 37° C. Preincubation included various
dilution into Todd Hewitt dialysis growth media.
^b Optical densities were measured after 24 hours and 48 hours (value
in parenthesis) incubation at 37° C. for both 1 and 2 hour
^c Colony forming units were determined in duplicate after 24 hours
for both 1 and 2 hour preincubations. They were also determined after 48
hours on those 2 hour preincubation samples showing zero density (values

[2] = tested on: C. albicans; test: HRP added to growing C. albicans cells (FIG. 1); type: cell-based, Candida albicans; details: data not shown
Experimental: FIG. 1 is a plot showing the effect of the salivary histidine-rich polypeptide on the growth of C. albicans.
When HRP was not placed in the growth medium initially but was added to growing cells, the following observations were noted (FIG. 1).

[3] = tested on: Candida Albicans 18804; test: Proliferation of Candida albicans 18804 on denture acrylic strips, poly-L-histidine; type: cell-based
Experimental: Denture acrylic was uniformly cut into strips of dimension 1/8 inches×1/8 inches×31/2 inches. Each strip was attached to the inside of the cap of the screw cap tube (13 X 100 mm) such that the bottom of each strip lay 3/8 inches from the bottom of each tube. Tubes containing denture strips were sterilized in the ethylene oxide sterilizer. In this experiment, poly-L-histidine was dissolved in 0.025 M MES buffer, pH 5.2 with heating. As in the previous experiment, denture strips were first pretreated with poly-L-histidine (4 mg per ml) overnight prior to incubation with Candida albicans for 21/4 hours. Strips were then transferred to YSM without poly-histidine (controls) or to YSM containing poly-histidine at 2 mg per ml. Although there was precipitation of the poly-L-histidine in the YSM, strips were incubated for 24 hours until controls had reached an optical density at 600 nm=1.2 corresponding to 10^7 colony-forming units per ml. As in experiment with the L-histidine heptapeptide, strips were then transferred to YSM without poly-L-histidine and the growth curve was followed by monitoring the increase in turbidity.

[4] = 1 hour preincubation, after 24 hours
[5] = 2 hours preincubation, after 24 hours
[6] = 2 hours preincubation, after 48 hours (in parenthesis)

HEWL: hen egg white lysozyme
bacteriocidal activity for S. mutans SB ([1]; 1 or 2 hours preincubation in MES buffer, pH 5.2): bacteriocidal activity | % Loss of Viability [1, 4]: 69.0% | GFU (colony forming units) [1, 4]: 35.5 × 10^9 | O.D. 675 nm ([1]; 1 hour preincubation, after 24 hours incubation): 0.08 | bacteriocidal effect after 48 hours of incubation ([1]; 2 hour preincubation in the MES): continue to be bacteriocidal | % Loss of Viability [1, 5]: 100% | GFU (colony forming units) [1, 5]: 0 | O.D. 675 nm ([1]; 2 hours preincubation, after 24 hours incubation): 0 | % Loss of Viability [1, 6]: 100% | GFU (colony forming units) [1, 6]: 0 | O.D. 675 nm ([1]; 2 hours preincubation, after 48 hours incubation (in parenthesis)): 0 | optical densities after 48 hours in the growth media ([1]; cells previously exposed for 1 hour in the MES buffer): attained optical densities similar to the controls

Poly-L-histidine
effectiveness on growth of C. albicans compared to HRP [2]: similarly effective to the HRP | effectiveness compared to His-7 ([3]; compare Table 8 to Table 7): even more effective than His-7 | time for which growth is inhibited ([3]; denture strips, Table 8): 80 h | Optical Density at 600 nm ([3]; strips 4 mg per ml overnight, then YSM with 2 mg per ml 24 hours, then YSM without poly-L-histidine, 0 hours of incubation): .02
